Assay results published in article PMC10224031, “Arylimidamides Have Potential for Chemoprophylaxis against Blood-Transmitted Chagas Disease” (Pathogens, 2023).
“And” between values parts separate entries of the source, which are not always exact repeats. Identical values can stand only once. Like-named read-outs stand apart in the source and are kept apart here. Marks after values point to notes of the source that are not given here.

Columns and labels:
[1] = system: bloodstream trypomastigotes (BT) of Trypanosoma cruzi; experiment: In vitro infectivity of bloodstream trypomastigotes pre-treated with AIAs in cardiac cell cultures; type: cell-based; settings: for Par./Infected CC / II (infection index = % infection × parasites/infected CM) / % Infection: BT pre-treated 2 h at EC50 (DB745 6.4 μM, DB766 1.14 μM)
Protocol: Bloodstream trypomastigote (BT) forms of the Y strain were obtained from infected male Swiss mice, at peak parasitemia. The purified parasites were resuspended in Dulbecco’s modified Eagle’s medium (DME) supplemented with 10% FBS (DMES). […] Then, the parasite suspensions were centrifuged (3000 rpm/10 min) and the pellet resuspended in RPMI, quantified through light microscopy, and used for the infection of Swiss embryo mouse cardiac cell cultures (CC) seeded (15 × 10^4 cells/well) in 24-well plates (10:1 parasite–cell ratio). After 24 h of parasite–host cell interaction, the infected cultures were washed to remove free parasites and maintained at 37 °C in an atmosphere of 5% CO2 and air and the culture medium replaced every 24 h. Afterwards, untreated and treated infected cardiac cells (CCs) were fixed and stained with Giemsa and examined via light microscopy. Only characteristic T. cruzi nuclei and kinetoplasts were counted as surviving parasites since irregular structures could mean parasites undergoing death. The activity of the AIAs was estimated by calculating the infection index (II), which corresponds to the percentage of infected cells multiplied by the average number of intracellular parasites per infected host cell. Duplicate assays were run in the same plate and at least two independent assays were performed as standard.

[2] = system: T. cruzi bloodstream trypomastigotes; experiment: In vivo infectivity in Swiss mice of blood samples infected with bloodstream trypomastigotes pre-treated with AIAs or CV; parameters: species or system Trypanosoma cruzi; settings: for Clearance of the Parasitemia / Clearance of the Parasitemia after cyclophosphamide administration: cleared mice/total; for suppression of the parasite load (parasitemia): both genders
Protocol: Male and female Swiss Webster mice (18–20 g) were obtained from the Fundação Oswaldo Cruz animal facilities (ICTB, Rio de Janeiro, Brazil). Mice were housed at a maximum of five per cage, kept in a specific pathogen-free (SPF) room at 20 to 24 °C under a 12-h/12 h light/dark cycle and provided sterilized water and chow ad libitum. The animals were allowed to acclimate for 7 days before the start of the experiments.
For evaluation of the chemoprophylactic potential of the AIAs and CV in vivo, the mice were inoculated (via i.p.) with 10^4 trypomastigotes into 200 µL of: (a) infected untreated blood samples; (b) infected using blood samples pre-treated for 2 h with the compounds at a concentration corresponding either to their EC50 or with 96 µM of one of the AIAs.
Parasitemia of individual mice was daily checked (until 10 dpi, and then, twice a week) by direct microscopic counting of parasites in 5 µL of blood taken via tail prick. Body weight was evaluated weekly, and mortality was checked daily until 40 days post-treatment and expressed as the percentage of survival. Thirty days after treatment the animals were immunosuppressed with cyclophosphamide (50 mg/kg) in three cycles of 4 consecutive days/week and the parasitemia and mortality rates were evaluated for 4 weeks.

[3] = system: bloodstream trypomastigotes of Trypanosoma cruzi; settings: cited from earlier work; for fold more effective than crystal violet (trypanocidal activity): 4 °C in the presence of 96% mouse blood
[4] = system: mouse blood cells; type: cell-based; settings: Swiss Webster, 24 h
Protocol: In 96-well microplates, 100 µL of the mouse blood suspension was added to the same volume of DB745 or DB766 at concentrations ranging from 2.4 to 192 µM. After incubation at 4 °C for 24 h, the samples were centrifuged (5 min/540× g) and a 100 µL aliquot was transferred to another microplate and the levels of hemoglobin measured at 540 nm. Deionized water was used as control for 100% hemolytic activity, and PBS as a negative control. The degree of hemolysis was calculated by the variation index (VI) that corresponds to the ratio of optical density (OD) of the treated sample/positive control. The reading of the OD of the samples was performed in the SpectraMax® Plus 384 Absorbance Plate Reader spectrophotometer (540 nm) and duplicate samples were run in at least two assays.

[5] = 24 h of parasite-host cell interaction, untreated 23.4 ± 5.5
[6] = experiment # 1, inoculum pre-treated 2 h at 96 μM, male Swiss mice, n = 5, vehicle 261.1 ± 124.6
[7] = experiment # 1, inoculum pre-treated 2 h at EC50, male Swiss mice, n = 5, vehicle 261.1 ± 124.6
[8] = experiment # 1, pre-treatment at 96 μM
[9] = experiment # 1, pre-treatment at EC50
[10] = experiment # 2, inoculum pre-treated 2 h at 96 μM, male Swiss mice, n = 5, vehicle 277.9 ± 57.2
[11] = experiment # 2, inoculum pre-treated 2 h at EC50, male Swiss mice, n = 5, vehicle 277.9 ± 57.2
[12] = experiment # 2, pre-treatment at 96 μM
[13] = experiment # 2, pre-treatment at EC50
[14] = 2 h incubation, infected mouse blood, read-out: EC50
[15] = female Swiss mice, n = 10, inoculum pre-treated at 96 µM, vehicle 247.7 ± 25.3
[16] = female mice, 96 µM, untreated 0%
[17] = male Swiss mice, n = 10, inoculum pre-treated at 96 µM, vehicle 209.8 ± 29.2

| Structure (SMILES) | Par./Infected CC ([1]; 24 h, untreated 1.6 ± 0.5) | II (infection index = % infection × parasites/infected CM) ([1]; 24 h, untreated 38 ± 16) | % Infection [1, 5] | Par./Infected CC ([1]; 72 h, untreated 17.7 ± 1.7) | % Infection ([1]; 72 h, untreated 26.3 ± 2.3) | II (infection index = % infection × parasites/infected CM) ([1]; 72 h, untreated 466 ± 49) | Parasitemia at 8 dpi [2, 6] | Parasitemia at 8 dpi [2, 7] | Clearance of the Parasitemia [2, 8] | Clearance of the Parasitemia [2, 9] | Parasitemia at 8 dpi [2, 10] | Parasitemia at 8 dpi [2, 11] | Clearance of the Parasitemia [2, 12] | Clearance of the Parasitemia [2, 13] | fold more effective than crystal violet (trypanocidal activity) [3] | EC50 [3, 14] [µM] | OD ([4]; 3.9 μM) | VI (variation index = OD(treated)/OD(control)) ([4]; 3.9 μM) | OD ([4]; 10.6 μM) | VI (variation index = OD(treated)/OD(control)) ([4]; 10.6 μM) | other results |
| --- | --- | --- | --- | --- | --- | --- | --- | --- | --- | --- | --- | --- | --- | --- | --- | --- | --- | --- | --- | --- | --- |
| CCOc1cc(NC(=N)c2ccccn2)ccc1-c1ccc(-c2ccc(NC(=N)c3ccccn3)cc2OCC)o1 [DB745] | 1.4 ± 0.3 | 10 ± 4.4 | 7.3 ± 3.4 % | 18.6 ± 2.4 | 14.6 ± 0.2% | 272 ± 39 | 4.6 ± 2.4 ×10^4 Parasites/mL | 156.4 ± 31.1 ×10^4 Parasites/mL | 0/5 | 0/5 | 1.3 ± 1.1 ×10^4 Parasites/mL | 4.2 ± 2.1 ×10^4 Parasites/mL | 0/5 | 0/5 | at least 30 fold | 6.4 | 0.215 ± 0.037 | 0.082 | 0.184 ± 0.014 | 0.070 | effect on parasite multiplication (parasites per infected host cell) ([1]; BT pre-incubated at EC50): only slightly impaired the parasite multiplication; reduction of parasitemia peak ([2]; inoculum pre-treated at EC50, male Swiss mice): > 98%; OD ([4]; 1.2 μM): 0.220 ± 0.063; VI (variation index = OD(treated)/OD(control)) ([4]; 1.2 μM): 0.084; OD ([4]; 32 μM): 0.195 ± 0.007; VI (variation index = OD(treated)/OD(control)) ([4]; 32 μM): 0.074; OD ([4]; 96 μM): 0.206 ± 0.004; VI (variation index = OD(treated)/OD(control)) ([4]; 96 μM): 0.078 |
| CC(C)Oc1cc(NC(=N)c2ncccn2)ccc1-c1ccc(-c2ccc(NC(=N)c3ncccn3)cc2OC(C)C)o1 [DB1831] | – | – | – | – | – | – | 0.0 ± 0.0 ×10^4 Parasites/mL | 366.2 ± 295.1 ×10^4 Parasites/mL | 2/5 | 0/5 | 0.0 ± 0.0 ×10^4 Parasites/mL | 157.7 ± 55.9 ×10^4 Parasites/mL | 4/5 | 0/5 | at least 30 fold | – | – | – | – | – | suppression of the parasite load (parasitemia) ([2]; 96 µM): > 99%; infected mice with complete clearance of parasitemia ([2]; 96 µM, even after immune suppression with cyclophosphamide): 60%; animal survival ([2]; 96 µM, vehicle treated samples 0%): ≥ 90%; Parasitemia at 8 dpi [2, 15]: 0.1 ± 0.5 10^4 parasites/mL; Clearance of the Parasitemia after cyclophosphamide administration ([2]; female Swiss mice, 96 µM): 2/10; animal survival [2, 16]: 100%; Parasitemia at 8 dpi [2, 17]: 0.0 ± 0.0 10^4 parasites/mL; Clearance of the Parasitemia after cyclophosphamide administration ([2]; male Swiss mice, 96 µM): 7 out of 10 and 7/10; animal survival ([2]; male mice, 96 µM, untreated 0%): 90%; EC50 ([3]; used as inoculation pre-treatment concentration (Table 3 footnote a), read-out: EC50/2 h): 0.5 µM |
| CC(C)Oc1cc(NC(=N)c2ccccn2)ccc1-c1ccc(-c2ccc(NC(=N)c3ccccn3)cc2OC(C)C)o1 [DB766] | 0.5 ± 0.7 | 0.5 ± 2.1 | 1% and 1.0 ± 1.5 % | 0.3 ± 0.4 | 0.1% and 0.1 ± 0.2% | 0.03 ± 0.2 | 7.9 ± 5.2 ×10^4 Parasites/mL | 141.3 ± 152.7 ×10^4 Parasites/mL | 0/5 | 0/5 | 0.7 ± 1.1 ×10^4 Parasites/mL | 170.5 ± 39 ×10^4 Parasites/mL | 0/5 | 0/5 | at least 30 fold | 1.14 | 0.248 ± 0.018 | 0.094 | 0.200 ± 0.034 | 0.076 | decrease in number of parasites per infected host cell ([1]; 24 h of CC infection, BT pre-incubated at EC50): 69%; decrease in number of parasites per infected host cell ([1]; 72 h of CC infection, BT pre-incubated at EC50): 98%; reduction in the II ([1]; BT pre-incubated at EC50): > 99%; OD ([4]; 32 μM): 0.230 ± 0.051; VI (variation index = OD(treated)/OD(control)) ([4]; 32 μM): 0.088; OD ([4]; 96 μM): 0.317 ± 0.069; VI (variation index = OD(treated)/OD(control)) ([4]; 96 μM): 0.121 * |
| CN(C)c1ccc(C(=C2C=CC(=[N+](C)C)C=C2)c2ccc(N(C)C)cc2)cc1 [CV, crystal violet, reference compound] | – | – | – | – | – | – | 34.7 ± 38.5 ×10^4 Parasites/mL | – | 0/5 | – | 1.6 ± 1.7 ×10^4 Parasites/mL | – | 0/5 | – | – | – | – | – | – | – | suppression of the parasite load (parasitemia) ([2]; 96 µM): > 99%; Parasitemia at 8 dpi [2, 15]: 0 ± 0 10^4 parasites/mL; Clearance of the Parasitemia after cyclophosphamide administration ([2]; female Swiss mice, 96 µM): 3/10; animal survival [2, 16]: 90%; Parasitemia at 8 dpi [2, 17]: 0.1 ± 0.2 10^4 parasites/mL; Clearance of the Parasitemia after cyclophosphamide administration ([2]; male Swiss mice, 96 µM): 4/10; animal survival ([2]; male mice, 96 µM, untreated 0%): 60% |
